Measured values taken from patent US11980607B2, “Methods of treating malignant lymphoproliferative disorders” (Actuate Therapeutics Inc., priority 2018, dated 2024).

What was measured:
MyLa [1] = assay: Apoptosis assay (Annexin V/PI), cell survival; assay type: cell-based; details: Homo sapiens; MyLa (TCL), 48 hours
Method: Cells were seeded at 5×10^5 cells/well in 24 well plates, and incubated with 9-ING-41 at indicated concentrations for 48 hours. The cells were then stained with FITC conjugated Annexin V (Life Technologies) and Propidium Iodide followed by analysis on a BD FACS Calibur flow cytometer.
(§1) The IC50S of 9-ING-41 on cell survival and proliferation was calculated using an on-line IC50 calculation tool (https://www.aatbio.com/tools/ic50-calculator/).
Given that both GSK3α and GSK3β are overexpressed in lymphoma cells, and that both enzymes are implicated in multiple signaling pathways critical for cell functions, whether GSK3α and GSK3β are functionally supporting the survival and proliferation of lymphoma cells was examined. […] The inhibitory concentrations of 9-ING-41 at half of the maximal effect (IC50) on cell survival of various lymphoma cell lines was calculated (Table 1).

[2] = test system: SUDHL-4, KPUM-UH1, Karpas 22, or TMD8 lymphoma cells; assay: cells; assay type: cell-based
Method: FIGS. 1A-1E show the viability and proliferation of lymphoma cells with 9-ING-41 treatment. 10,000 cells (SUDHL-4 (FIG. 1B), KPUM-UH1 (FIG. 1C), Karpas 422 (FIG. 1D), TMD8 (FIG. 1E)) per 96-well plate well were left untreated or treated with 1 μM 9-ING-41 in triplicate, and the number of cells on days 1, 3, 5 and 7 were calculated using the MTS assay. Briefly, 20 μL of MTS reagent was added to cells and incubated for 2 hours and, the absorbance at 490 nm (A490) was read using a Biotek plate reader. Absorbance at OD=490 nm increases proportionally to cell density. Error bars represent std. deviation between replicates.
Daudi (Burkitt) and SUDHL-4 (germinal center (GC) diffuse large B-cell lymphoma (DLBCL)) cell lines were purchased from […]. (ATCC). KPUM-UH1 (double hit DLBCL) cells were obtained from Junya Kuroda, Kyoto Prefectural University of Medicine, Kyoto, Japan. All cell lines were cultured aseptically and maintained in a water-jacketed incubator (Thermo-Forma) at 37° C. with 5% CO2 and fed with RPMI-1640 (Corning) containing […] glutamine, 10% FBS (Sigma), and antibiotic and antimycotic reagent (Gemini Bioproducts; final concentrations—100 units/mL penicillin G, 100 μg/mL streptomycin sulfate, and 250 ng/mL amphotericin B). Karpas 422 (GC-DLBCL) cells was purchased from Sigma. […] All cell numbers for assays were quantified using a TC20 automated cell counter (BioRad). […]
Cell viability at day 3 and proliferation over the course of 7 days were measured after treating cells with varying concentrations of 9-ING-41 using the Promega CellTiter 96® AQueous One Solution Cell Proliferation Assay reagent (MTS) in accordance with the manufacturer's instructions. […] The absorbance at 490 nm (A490) was determined using a Powerwave XS plate reader (Biotek).
All lymphoma cell lines used in this study express active GSK-3β. SUDHL-4, KPUM-UH1, […], or TMD8 lymphoma cells were plated, and cell numbers on days 1, 3, 5 and 7 were measured using the MTS assay. […]

Karpas-299 = assay: Proliferation assay (thymidine uptake); assay type: cell-based; details: Homo sapiens; Karpas-299 (TCL), 48 hours then thymidine pulse; read-out: IC50 (μM) on Cell proliferation
Method: (§2) Cells were seeded at 1×10^4 cells/well in 96 well plates, and incubated with 9-ING-41 at indicated concentrations for 48 hours followed by pulsing with tritium labeled thymidine for overnight before being analyzed for thymidine uptake.
as §1
(§3) 9-ING-41 can specifically induce lymphoma cell apoptosis without affecting normal lymphocytes. The thymidine incorporation assay in the presence or absence of 9-ING-41 was performed to test the role of GSK3 in lymphoma cell proliferation. […] The DLBCL lines required slightly higher concentrations. The IC50 of 9-ING-41 on cell proliferation for various lymphoma cell lines was calculated (Table 1).

OCI-Ly3 = assay: Proliferation assay (thymidine uptake); assay type: cell-based; details: Homo sapiens; OCI-Ly3 (DLBCL), 48 hours then thymidine pulse; read-out: IC50 (μM) on Cell proliferation
Method: as §2, §1, §3

Granta-519 = assay: Proliferation assay (thymidine uptake); assay type: cell-based; details: Homo sapiens; Granta-519 (MCL), 48 hours then thymidine pulse; read-out: IC50 (μM) on Cell proliferation
Method: as §2, §1, §3

Mino = assay: Proliferation assay (thymidine uptake); assay type: cell-based; details: Homo sapiens; Mino (MCL), 48 hours then thymidine pulse; read-out: IC50 (μM) on Cell proliferation
Method: as §2, §1, §3

Jeko = assay: Proliferation assay (thymidine uptake); assay type: cell-based; details: Homo sapiens; Jeko (MCL), 48 hours then thymidine pulse; read-out: IC50 (μM) on Cell proliferation
Method: as §2, §1, §3

OCI-LY19 = assay: Proliferation assay (thymidine uptake); assay type: cell-based; details: Homo sapiens; OCI-LY19 (DLBCL), 48 hours then thymidine pulse; read-out: IC50 (μM) on Cell proliferation
Method: as §2, §1, §3

SeAx = assay: Proliferation assay (thymidine uptake); assay type: cell-based; details: Homo sapiens; SeAx (TCL), 48 hours then thymidine pulse; read-out: IC50 (μM) on Cell proliferation
Method: as §2, §1, §3

SU-DHL6 = assay: Proliferation assay (thymidine uptake); assay type: cell-based; details: Homo sapiens, SU-DHL-6; SU-DHL6 (DLBCL), 48 hours then thymidine pulse; read-out: IC50 (μM) on Cell proliferation
Method: as §2, §1, §3

MyLa [3] = assay: Proliferation assay (thymidine uptake); assay type: cell-based; details: Homo sapiens; MyLa (TCL), 48 hours then thymidine pulse; read-out: IC50 (μM) on Cell proliferation
Method: as §2, §1, §3

OCI-LY1 = assay: Proliferation assay (thymidine uptake); assay type: cell-based; details: Homo sapiens; OCI-LY1 (DLBCL), 48 hours then thymidine pulse; read-out: IC50 (μM) on Cell proliferation
Method: as §2, §1, §3

[4] = test system: GSK3β localization in Jeko cells; assay: Immunofluorescence staining for GSK3β localization; assay type: cell-based, human; details: 9-ING-41 treated Jeko cells
Method: (B) A close-up (magnification) image of that shown in (A). […] (L) A close-up image of a mitotic cell shown in (K). (M) An overlay image showing the microtubule structure by α-tubulin (red) staining and DNA (in blue). (N) A close-up image of that shown in (M). […] (R) A close-up image of a representative mitotic cell shown in (Q). All other immunostainings of GSK3β and α-Tubulin on cytospin preparations of lymphoma cells were fixed with 4% paraformaldehyde in PBS for 15 min at room temperature followed by permeabilization and the same staining steps as above. The cells were analyzed and imaged on a conventional Zeiss microscope or a Zeiss LSR 780 confocal microscope. To determine the intracellular localization of GSK3β in mitotic cells, GSK3β localization in normal mitotic Jeko cells was analyzed. […] The localization of GSK3β in 9-ING-41 treated Jeko cells (FIG. 8Q-R) was determined.

IC50 (Karpas-299): 0.26 µM | IC50 (OCI-Ly3): 1.03 µM | IC50 (OCI-LY19): 1.96 µM | IC50 (SU-DHL6): 0.84 µM | IC50 (OCI-LY1): 0.69 µM
SMILES: Cn1cc(C2=C(c3coc4ccc(F)cc34)C(=O)NC2=O)c2cc3c(cc21)OCO3 [9-ING-41, 3-(5-Fluorobenzofuran-3-yl)-4-(5-methyl-5H-[1,3]dioxolo[4,5-f]indol-7-yl)pyrrole-2,5-dione]
IC50 (MyLa [1]): 0.69 µM | Proliferation on day 7, relative to control ([2]; 1 μM 9-ING-41, day 7, all lymphoma cell lines, p<0.05): less than 30% | cytotoxicity at 1 µM ([2]; 72 h, read-out: Reduction of cell viability on day 3): 40 to 70% | Concentration at which a reduction in viability was seen ([2]; tested 0.1, 0.5, 1, 5 and 10 μM): ≥ 0.5 µM | IC50 (Granta-519): 0.38 µM | IC50 (Mino): 0.72 µM | IC50 (Jeko): 0.94 µM | IC50 (SeAx): 0.38 µM | IC50 (MyLa [3]): 0.19 µM | Effect on localization of GSK3β [4]: did not alter the localization of GSK3β
